Experimental data reported in patent publication US20140154337A1, “ANTIMICROBIAL AGENTS AND METHODS FOR USE THEREOF IN THE ABATEMENT OF FOOD BORNE PATHOGENIC ORGANISMS” (priority 2011, published 2014).

Test system: Escherichia coli ATCC strain number 8739
Assay: Enteral antimicrobial laboratory evaluation: inoculated tryptic soy agar plates sprayed with test mixture, enumerated after three days
Format: cell-based
Conditions: TSA plates sprayed, phosphoric acid added to pH approximately 3.2 simulating mammalian stomach
Experimental: In particular, testing was conducted as follows:
Six (6) identical conventional tryptic soy agar (“TSA”) plates were inoculated with Escherichia coli of the ATCC strain number 8739, which, as previously discussed, is a feces derived strain typical of that expected in the applications of the present invention.
The inoculated plates were then separated into three (3) groups of two (2) plates each, which groups were treated as follows: • a. […] Group III was sprayed with purified water only (in order to establish a negative control for the evaluation).

O=P(O)(O)O [phosphoric acid solution, phosphoric acid]
growth of Escherichia coli: only a minor reduction in the growth
